Consider five compounds from ChEMBL document CHEMBL1201862, “PubChem BioAssay data set” (2004).

Assay [1] has as its target T1, Mu-type opioid receptor (Homo sapiens, UniProt P35372). The experiment in a line: mu opioid receptor activators, image-based, SAR follow-up (AID 2352). Format: functional.
The target in assay [2] is T1, Mu-type opioid receptor. The experiment in a line: mu opioid receptor blockers – image-based, SAR follow-up (AID 2420).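 Note: compounds added before stimulation of receptor with agonist DAMGO.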 Format: functional.
The target in assay [3] is Dual specificity protein phosphatase 3 (Homo sapiens, UniProt P51452). The assay is described as follows: SAR VHR1 Fluorescent Assay for In Vitro dose response studies Set 2. [Related pubchem assays (depositor defined):AID1654, AID1661, AID1878]. Type of assay: functional.
Sequence of Dual specificity protein phosphatase 3 (P51452 whole entry): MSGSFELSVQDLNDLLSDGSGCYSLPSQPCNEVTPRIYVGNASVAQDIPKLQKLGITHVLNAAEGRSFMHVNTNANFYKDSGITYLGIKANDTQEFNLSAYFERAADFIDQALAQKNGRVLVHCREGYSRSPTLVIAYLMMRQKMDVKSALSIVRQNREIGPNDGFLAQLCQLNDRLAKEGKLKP
Assay [4] has as its target T2, Kappa-type opioid receptor (Homo sapiens, UniProt P41145). The assay is described as follows: kappa opioid receptor activation potency – imaging, image-based, SAR follow-up (AID 2359). Format: functional.
Assay [5] has as its target T3, Delta-type opioid receptor (Homo sapiens, UniProt P41143). The experiment in a line: DOR agonists, SAR follow-up, image-based (AID 2370). Format: functional.
For assay [6], the target named is T2, Kappa-type opioid receptor. The experiment in a line: kappa opioid receptor blockers, image-based, SAR follow-up (AID 2348). Format: functional.
Assay [7] deals with T3, Delta-type opioid receptor. The assay is described as follows: delta opioid receptor blockers – image-based, SAR follow-up (AID 2357). Type of assay: functional.
The target of assay [8] is T4, Tyrosine-protein phosphatase non-receptor type 7 (Homo sapiens, UniProt P35236).
T4 sequence (P35236 whole entry): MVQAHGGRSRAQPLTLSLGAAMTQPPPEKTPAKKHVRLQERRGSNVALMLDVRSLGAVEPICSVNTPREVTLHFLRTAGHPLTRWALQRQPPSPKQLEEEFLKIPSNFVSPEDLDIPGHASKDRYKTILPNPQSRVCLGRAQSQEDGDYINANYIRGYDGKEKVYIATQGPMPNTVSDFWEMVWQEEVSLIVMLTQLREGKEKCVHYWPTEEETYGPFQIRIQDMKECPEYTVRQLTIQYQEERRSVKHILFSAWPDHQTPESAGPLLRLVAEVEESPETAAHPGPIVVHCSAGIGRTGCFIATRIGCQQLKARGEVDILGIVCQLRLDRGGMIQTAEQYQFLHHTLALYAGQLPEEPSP
The experiment in a line: SAR analysis of chemical inhibitors of HePTP using a Fluorescent assay - Set 2. [Related pubchem assays (depositor defined):AID1059, AID1077, AID1661, AID2085, AID521]. Format: functional.

In assay [9] the target is T2, Kappa-type opioid receptor. The assay is described as follows: kappa opioid receptor blockers, cell-based, luminescence, beta-arrestin, SAR follow-up (AID 2285). Type of assay: functional.
Assay [10] deals with T4, Tyrosine-protein phosphatase non-receptor type 7. The experiment in a line: redox-active compounds inhibiting HePTP phosphatase – biochemical, fluorescence, mechanism study (AID 2068). Type of assay: functional.
Assay [11] concerns Vero. The assay is described as follows: host cell viability loss, Vero E6 – synthesized analogs, cytotoxicity control for West Nile virus antiviral project, SAR follow-up (AID 2244). Format: functional. The settings on record: Chlorocebus sabaeus.
Assay [12] concerns Vero. The assay is described as follows: Vero 76 cell viability after compound exposure – Vero 76 cells, synthesized analogs, cytotoxicity control for West Nile virus antiviral project, SAR follow-up (AID 2414). Format: functional. The settings on record: Chlorocebus sabaeus.
Assay [13] has as its system Vero. The assay is described as follows: inhibition of WNV-induced cytopathic effect – cell-based, CPE readout (AID 1621). Format: functional. The note with it: Chlorocebus sabaeus.
The test system of assay [14] is Vero. The experiment in a line: antiviral protection of cells from WNV – synthesized analogs, SAR follow-up (AID 2238). Format: functional, cell-based. The note with it: Chlorocebus sabaeus.
For assay [15], the system named is Vero. The experiment in a line: Vero cell viability after compound exposure – synthesized analogs, set II, cytotoxicity control for West Nile virus antiviral project, SAR follow-up (AID 2402). Format: functional. The settings on record: Chlorocebus sabaeus.
Another assay has as its target Exodeoxyribonuclease V (Escherichia coli (strain K12), UniProt P04993+P07648+P08394). The assay is described as follows: RecBCD inhibition via phage-restricted bacterial growth – absorbance, V66 E. coli, mutant T4 phage, counter-screen for AddAB inhibitor project, dose response (AID 492957). Type of assay: functional, cell-based, Escherichia coli str. K-12 substr. MG1655.

A short description of assay [16]: Counterscreen for AddAB inhibitors: absorbance-based bacterial cell-based high throughput dose response assay for inhibitors of bacterial viability. [Related pubchem assays (depositor defined):AID435030, AID449728, AID449731, AID488942, AID488955, AID488956]. Type of assay: functional. (In general: The purpose of a counterscreen is to sort out artefacts and off-target activity.)

Assay [17] addresses T2, Kappa-type opioid receptor. The experiment in a line: SAR analysis of small molecule agonists of the kappa opioid receptor via a luminescent beta-arrestin assay - Set 3. [Related pubchem assays (depositor defined):AID1777, AID1785, AID1786, AID1966, AID2133, AID2136, AID2284, AID2500]. Type of assay: functional.
Assay [18] has as its target T1, Mu-type opioid receptor. The experiment in a line: SAR Analysis of Agonists of the MOR Receptor using an Image-Based Assay - Set 2. [Related pubchem assays (depositor defined):AID1777, AID1785, AID1786, AID1966, AID2133, AID2136, AID2284, AID2285, AID2352]. Type of assay: functional.
The target of assay [19] is T1, Mu-type opioid receptor. The assay is described as follows: SAR Analysis of Agonists of the MOR Receptor using an Image-Based Assay - Set 3. [Related pubchem assays (depositor defined):AID1777, AID1785, AID1786, AID1966, AID2133, AID2136, AID2284, AID2285, AID2352]. Format: functional.
Assay [20] has as its target T1, Mu-type opioid receptor. The assay is described as follows: SAR Analysis of Antagonists of the MOR Receptor using an Image-Based Assay - Set 2. [Related pubchem assays (depositor defined):AID1777, AID1785, AID1786, AID1966, AID2133, AID2136, AID2284, AID2285, AID2420]. Format: functional.
Assay [21] deals with T2, Kappa-type opioid receptor. The assay is described as follows: SAR analysis of Agonists of the Kappa Opioid Receptor (KOR) using an Image-Based Assay - Set 2. [Related pubchem assays (depositor defined):AID1777, AID1786, AID1966, AID2133, AID2136, AID2284, AID2285, AID2359]. Format: functional.
The target in assay [22] is T3, Delta-type opioid receptor. The assay is described as follows: SAR Analysis of Antagonists of the DOR Receptor using an Image-Based Assay - Set 2. [Related pubchem assays (depositor defined):AID1777, AID1785, AID1786, AID1966, AID2133, AID2136, AID2284, AID2285, AID2357]. Type of assay: functional.
Assay [23] has as its target T2, Kappa-type opioid receptor. The experiment in a line: SAR analysis of small molecule agonists of the kappa opioid receptor via a luminescent beta-arrestin assay - Set 2. [Related pubchem assays (depositor defined):AID1777, AID1785, AID1786, AID1966, AID2133, AID2136, AID2284, AID449737]. Format: functional.
Assay [24] concerns the target T2, Kappa-type opioid receptor. The assay is described as follows: kappa opioid receptor activation by imaging – image-based, set 3, SAR follow-up (AID 488833). Format: functional.
For assay [25], the target named is T3, Delta-type opioid receptor. The assay is described as follows: SAR Analysis of Agonists of the DOR Receptor using an Image-Based Assay - Set 2. [Related pubchem assays (depositor defined):AID1777, AID1785, AID1786, AID1966, AID2133, AID2136, AID2284, AID2285, AID2370]. Type of assay: functional.
Assay [26] has as its target T3, Delta-type opioid receptor. The experiment in a line: SAR Analysis of Agonists of the DOR Receptor using an Image-Based Assay - Set 3. [Related pubchem assays (depositor defined):AID1777, AID1786]. Type of assay: functional.
Assay [27] addresses T2, Kappa-type opioid receptor. The assay is described as follows: SAR analysis of Antagonists of the Kappa Opioid Receptor (KOR) using an Image-Based Assay - Set 2. [Related pubchem assays (depositor defined):AID1777, AID1785, AID1786, AID1966, AID2133, AID2136, AID2284, AID2285, AID2348]. Format: functional.

Calls of active or inactive are those of the source.

T1 sequence (P35372 whole entry): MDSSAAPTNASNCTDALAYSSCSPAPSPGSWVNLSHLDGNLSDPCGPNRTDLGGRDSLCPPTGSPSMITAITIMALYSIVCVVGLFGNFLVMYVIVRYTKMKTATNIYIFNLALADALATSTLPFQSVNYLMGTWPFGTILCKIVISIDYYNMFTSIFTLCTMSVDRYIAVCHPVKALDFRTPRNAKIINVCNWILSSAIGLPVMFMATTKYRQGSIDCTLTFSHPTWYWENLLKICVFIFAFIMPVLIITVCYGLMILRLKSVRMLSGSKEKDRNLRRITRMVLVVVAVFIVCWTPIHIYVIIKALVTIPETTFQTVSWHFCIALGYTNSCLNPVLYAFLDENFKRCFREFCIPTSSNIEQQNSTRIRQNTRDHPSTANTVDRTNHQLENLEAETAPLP
T3 sequence (P41143 whole entry): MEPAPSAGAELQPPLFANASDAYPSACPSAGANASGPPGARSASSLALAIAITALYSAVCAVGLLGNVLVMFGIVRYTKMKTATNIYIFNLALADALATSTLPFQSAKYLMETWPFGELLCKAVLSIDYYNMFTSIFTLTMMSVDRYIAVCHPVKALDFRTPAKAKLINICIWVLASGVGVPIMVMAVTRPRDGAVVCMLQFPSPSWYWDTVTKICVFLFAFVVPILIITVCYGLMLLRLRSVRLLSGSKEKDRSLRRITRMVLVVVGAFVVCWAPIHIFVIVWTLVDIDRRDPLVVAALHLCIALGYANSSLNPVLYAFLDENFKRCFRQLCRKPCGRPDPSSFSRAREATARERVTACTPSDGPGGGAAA
T2 sequence (P41145 whole entry): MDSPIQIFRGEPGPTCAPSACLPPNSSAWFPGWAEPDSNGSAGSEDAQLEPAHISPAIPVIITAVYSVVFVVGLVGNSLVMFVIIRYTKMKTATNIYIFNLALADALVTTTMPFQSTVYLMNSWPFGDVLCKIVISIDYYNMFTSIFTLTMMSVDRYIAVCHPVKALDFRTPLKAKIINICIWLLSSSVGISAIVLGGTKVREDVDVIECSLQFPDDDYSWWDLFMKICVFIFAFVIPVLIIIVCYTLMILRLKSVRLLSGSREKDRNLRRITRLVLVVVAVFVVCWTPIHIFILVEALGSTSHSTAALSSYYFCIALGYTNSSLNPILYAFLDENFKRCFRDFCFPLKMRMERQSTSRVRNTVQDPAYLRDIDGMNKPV
Sequence of Exodeoxyribonuclease V (P04993 whole entry): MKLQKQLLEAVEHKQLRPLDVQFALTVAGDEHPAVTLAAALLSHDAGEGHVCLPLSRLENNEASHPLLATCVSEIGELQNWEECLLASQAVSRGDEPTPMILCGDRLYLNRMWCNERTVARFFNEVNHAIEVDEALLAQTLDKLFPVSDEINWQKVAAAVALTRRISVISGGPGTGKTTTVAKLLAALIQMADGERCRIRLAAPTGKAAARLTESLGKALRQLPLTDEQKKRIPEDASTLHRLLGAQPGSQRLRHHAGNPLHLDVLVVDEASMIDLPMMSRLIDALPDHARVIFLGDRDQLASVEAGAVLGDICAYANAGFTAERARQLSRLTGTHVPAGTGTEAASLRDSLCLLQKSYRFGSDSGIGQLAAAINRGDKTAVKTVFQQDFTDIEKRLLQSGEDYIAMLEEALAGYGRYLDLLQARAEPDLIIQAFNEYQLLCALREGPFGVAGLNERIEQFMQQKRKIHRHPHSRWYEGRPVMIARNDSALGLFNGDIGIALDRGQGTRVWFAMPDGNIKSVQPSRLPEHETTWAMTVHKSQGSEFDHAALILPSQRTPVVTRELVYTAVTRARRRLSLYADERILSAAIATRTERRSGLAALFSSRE
Sequence of Exodeoxyribonuclease V (P07648 whole entry): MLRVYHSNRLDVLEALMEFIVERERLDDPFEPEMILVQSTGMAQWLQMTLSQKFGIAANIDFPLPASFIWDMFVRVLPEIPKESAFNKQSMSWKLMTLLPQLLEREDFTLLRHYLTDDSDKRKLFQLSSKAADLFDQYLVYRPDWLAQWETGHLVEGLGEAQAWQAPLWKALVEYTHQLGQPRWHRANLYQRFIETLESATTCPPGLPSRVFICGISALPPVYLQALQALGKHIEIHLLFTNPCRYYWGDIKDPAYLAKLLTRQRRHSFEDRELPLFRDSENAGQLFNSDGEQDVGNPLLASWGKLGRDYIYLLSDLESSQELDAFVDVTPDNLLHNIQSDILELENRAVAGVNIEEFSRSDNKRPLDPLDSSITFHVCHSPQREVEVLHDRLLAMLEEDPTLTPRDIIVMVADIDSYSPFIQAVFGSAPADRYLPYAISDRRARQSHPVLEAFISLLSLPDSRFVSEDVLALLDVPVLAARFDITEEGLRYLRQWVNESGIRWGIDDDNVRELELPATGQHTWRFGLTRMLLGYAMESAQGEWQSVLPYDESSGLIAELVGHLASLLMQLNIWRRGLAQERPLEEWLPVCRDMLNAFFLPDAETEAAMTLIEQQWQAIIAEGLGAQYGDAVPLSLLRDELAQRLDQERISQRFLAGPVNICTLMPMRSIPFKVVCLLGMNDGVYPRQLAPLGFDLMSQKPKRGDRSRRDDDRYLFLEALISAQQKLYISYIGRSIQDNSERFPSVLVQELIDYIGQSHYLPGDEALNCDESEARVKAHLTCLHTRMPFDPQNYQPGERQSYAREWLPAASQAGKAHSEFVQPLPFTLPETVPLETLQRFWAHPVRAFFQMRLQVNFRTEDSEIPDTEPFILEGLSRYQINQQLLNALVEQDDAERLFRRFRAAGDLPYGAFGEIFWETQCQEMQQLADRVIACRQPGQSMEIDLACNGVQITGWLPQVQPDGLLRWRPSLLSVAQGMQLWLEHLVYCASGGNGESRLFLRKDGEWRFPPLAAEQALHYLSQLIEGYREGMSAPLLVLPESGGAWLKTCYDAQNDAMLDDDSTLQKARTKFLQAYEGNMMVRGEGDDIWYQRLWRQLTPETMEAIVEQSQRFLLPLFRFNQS
Sequence of Exodeoxyribonuclease V (P08394 whole entry): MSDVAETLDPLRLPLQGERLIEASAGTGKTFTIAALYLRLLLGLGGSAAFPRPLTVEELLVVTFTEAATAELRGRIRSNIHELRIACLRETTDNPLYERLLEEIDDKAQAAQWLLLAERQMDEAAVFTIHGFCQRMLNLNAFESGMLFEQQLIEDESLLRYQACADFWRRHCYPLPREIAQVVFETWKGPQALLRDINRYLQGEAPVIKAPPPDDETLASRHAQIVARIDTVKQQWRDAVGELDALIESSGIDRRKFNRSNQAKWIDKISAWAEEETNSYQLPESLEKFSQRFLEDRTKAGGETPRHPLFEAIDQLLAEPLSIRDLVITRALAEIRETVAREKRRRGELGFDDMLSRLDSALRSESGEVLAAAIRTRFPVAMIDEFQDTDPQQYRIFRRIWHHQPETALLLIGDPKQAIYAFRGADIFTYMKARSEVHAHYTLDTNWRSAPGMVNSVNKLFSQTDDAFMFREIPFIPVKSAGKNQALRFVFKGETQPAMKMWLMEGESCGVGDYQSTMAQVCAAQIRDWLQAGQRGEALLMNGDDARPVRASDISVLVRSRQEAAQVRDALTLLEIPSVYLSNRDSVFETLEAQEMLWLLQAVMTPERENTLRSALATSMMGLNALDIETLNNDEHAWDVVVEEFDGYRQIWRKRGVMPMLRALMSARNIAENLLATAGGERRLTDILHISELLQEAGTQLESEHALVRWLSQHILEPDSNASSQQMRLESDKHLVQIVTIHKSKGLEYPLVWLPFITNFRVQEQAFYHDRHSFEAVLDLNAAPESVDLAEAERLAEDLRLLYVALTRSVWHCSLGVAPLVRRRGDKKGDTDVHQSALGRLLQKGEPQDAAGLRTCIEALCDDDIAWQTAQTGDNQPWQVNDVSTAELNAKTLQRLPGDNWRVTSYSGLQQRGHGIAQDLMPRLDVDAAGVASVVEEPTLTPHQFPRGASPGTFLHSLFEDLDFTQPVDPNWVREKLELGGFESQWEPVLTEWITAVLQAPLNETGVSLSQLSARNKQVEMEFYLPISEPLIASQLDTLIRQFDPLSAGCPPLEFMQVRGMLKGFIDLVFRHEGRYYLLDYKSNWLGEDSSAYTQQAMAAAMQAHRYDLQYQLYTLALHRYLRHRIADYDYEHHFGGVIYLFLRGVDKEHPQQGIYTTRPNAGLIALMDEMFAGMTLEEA

A word on the EC50: it is the concentration giving half of the maximal effect. The IC50 is the concentration that inhibits the measured activity by half. For the compound `O=C(NC(NC(=S)Nc1ccc(Cl)cc1Cl)C(Cl)(Cl)Cl)OCc1ccccc1` (stereo not drawn), the EC50 (at Mu-type opioid receptor [1]; in assay [4]; in [5]) was > 32 µM (inactive) each time. Moreover, the IC50 on Mu-type opioid receptor [2] is > 32 µM (inactive); in assay [3] it was > 100 µM (inactive); in assay [6], 0.879 µM (active); in [7], > 32 µM (inactive); in [8], > 100 µM (inactive); in assay [9], 2.09 µM (active).
For the compound `CCOc1ccc(NC(=O)Nc2ccc3nc(-c4ccco4)c(-c4ccco4)nc3c2)cc1`, in [10], the 50% inhibitory concentration (IC50) is 10.4 µM (active).
Broadly, the CC50 is the concentration at which the toxic effect on the cells reaches its halfway point. On to `O=C(CSc1nc2ccccc2c(=O)n1-c1ccc(F)cc1)Nc1ccc2c(c1)CCC2`, for which the CC50 was > 80 µM (active) with Vero [11], > 133 µM (active) in the assay on Vero [12] and > 200 µM (active) in the assay with Vero [15]. The concentration for half-maximal inhibition (IC50) was 20.6 µM (active) in the assay on Vero [13] and 24.5 µM (active) in the assay on Vero [14].
As for `O=C(N/N=C\c1cccc(Cl)c1)c1ccc(Cn2cc(Br)c([N+](=O)[O-])n2)o1`, the IC50 (on Exodeoxyribonuclease V; in assay [16]) was > 119 µM (inactive) in each case.
For the compound `Clc1ccc(CSc2nnc(-c3ccccn3)n2Cc2cccs2)c(Cl)c1`, the EC50 in assay [17] is 1.38 µM (active); on Mu-type opioid receptor [18], > 32 µM (inactive); at Mu-type opioid receptor [19], > 32 µM (inactive); in [21] it was 8.11 µM (active); in [23], 2.27 µM (active); in assay [24], 0.694 µM (active). For the same compound, the figures for the EC50 in assay [25] and in assay [26] were > 32 µM (inactive) and > 64 µM (inactive), respectively. Further, the IC50 (on Mu-type opioid receptor [20]; in assay [22]; in assay [27]) was > 32 µM (inactive) each time.
